Experimental findings from PMC7725443 (Advanced healthcare materials, 2020) are described below.

This assay has as its system OVSAHO cells. Put plainly: Cell viability of OVSAHO cells. The assay is classed as cell-based, human. Particulars: 50 nM and 100 nM, 24 h.

With `CC(C)C[C@H](NC(=O)[C@H](Cc1ccccc1)NC(=O)c1cnccn1)B(O)O` [BTZ, bortezomib], the “cell viability of OVSAHO cells treated with solely BTZ” value is “cell compatible”.
